Experiments:
[1] = system: nude guinea pigs; experiment: Subcutaneous fat deposition in nude guinea pigs; format: in vivo, guinea pig; settings: injection on upper back and in ear fat pad; control collagen gel vehicle only
Procedure: Peptide B (SEQ ID NO: 2) was also tested for its effect in nude guinea pigs since their skin structure resembles human facial skin. In particular, the skin of this animal model is more similar to human skin than is rat skin, in that it is hairless and the keratinocyte layer is thicker than in the rat model. […] Thus, peptide B was effective in promoting adipogenesis in this nude guinea pig model.

[2] = system: Human pre-adipocytes; experiment: Adipogenesis in 3D collagen gel culture; format: cell-based; settings: 3D collagen gels in the presence of adipogenic cocktail
Procedure: The adipogenic activity of peptide B (SEQ ID NO:2) was also examined using a three-dimensional (3D) culture system that models human skin.
Human pre-adipocytes were cultured in 3D collagen gels in the presence of the adipogenic cocktail described above (Adipocyte Differentiation Medium (ZenBio catalog no. DM-2)) and exposed to peptide B (SEQ ID NO: 2). […] The 3D results predict the ability of the B peptide to promote adipogenesis in vivo.

[3] = system: 2D human Pre-adipocytes; experiment: Adipogenic potential ranking in 2D tissue culture, human pre-adipocytes; format: cell-based; settings: scale of 0-5, 5 highest
Procedure: Examples of the adipogenic effects of RHAMM antagonists (peptide B (SEQ ID NO: 2), peptide P15-1 (SEQ ID NO. 1), and the antibody to peptide B) are summarized in Table 1. Peptide P15-1, peptide B, and a RHAMM antibody were assayed for their effects on pre-adipocyte stem cells in culture and when injected into the dermis of aged rats. Reagents were ranked on a scale of 0-5 with 5 representing the highest possible score and a completely filled in Harvey ball. “2D” refers to two-dimensional tissue culture.

[4] = system: RHAMM; experiment: Blocking of RHAMM function; settings: competitive blocker / direct binding
Source text: (§1) We hypothesized that the fragment and the antibody were blocking RHAMM function by competitive inhibition and by direct binding/blocking of RHAMM, respectively. Using truncation analyses, the size of the peptide was further reduced to 32 amino acids ([…] (SEQ ID NO: 92)) and it was shown that adipogenic activity is localized to a 15 amino acid peptide (KLKDENSQLKSEVSK (SEQ ID NO: 2); “peptide B” or “B-1” herein) shown in FIG. 2. This peptide was chemically synthesized to use as a competitive blocker, and antibodies were prepared against this sequence tagged with keyhold lymphocyte hemacyanin (KLH) to directly bind/block RHAMM function.

[5] = system: mesenchymal stem cells or papillary fibroblasts; experiment: Adipogenesis by RHAMM antagonists in tissue culture and in vivo (summary statements)
Source text: as §1
The RHAMM sequence that contains adipogenic activity also contains the hyaluronan binding region of this protein.
All of these reagents can replace insulin in their ability to promote adipogenesis in mesenchymal stem cells or papillary fibroblasts.

[6] = system: Female Fisher retired breeder rats; experiment: In vivo adipogenic activity in female retired breeder rat model; settings: 100 μg subcutaneous in 1 ml collagen vehicle; 7 days
Procedure: The adipogenic activity of the KSEVSK 6-mer (SEQ ID NO: 3) was also evaluated in vivo in a female retired breeder rat model. Female Fisher retired breeder rats (>9 months old) were used in these studies. The rats were injected subcutaneously with a 100 μg dose of the KSEVSK 6-mer peptide in 1 ml of a collagen vehicle or with collagen vehicle alone. The collagen vehicle contained 1 mg/ml of rat tail Type I collagen. […] Rats were injected with KSEVSK 6-mer peptide and collagen vehicle at sites A and C and with collagen vehicle only at sites B and D. Animals were maintained on a regular diet for 7 days and then euthanized Skin was harvested by cutting around the injected area, ensuring that underlying adipose tissue was retained with the skin at the injection sites. The tissue was then photographed and fat accumulation was assessed.

Row | Substance | subcutaneous fat deposition (H and E staining) [1] | adipogenesis (light refractory lipid droplets) [2] | adipogenic potential, 2D human Pre-adipocytes [3] | RHAMM function [4] | adipogenesis in tissue culture and in vivo [5] | adipogenicity relative to the other reagents of Table 1 [5] | fat pad surface area vs collagen vehicle alone [6]
1 | KLKDENSQLKSEVSK [peptide B] | increase in subcutaneous fat deposition | promoted adipogenesis | 5 | effectively block RHAMM function | promote adipogenesis in tissue culture and in vivo | the most adipogenic of these reagents | –
2 | KSEVSK [KSEVSK 6-mer] | – | – | – | – | – | – | significantly larger

Reference: patent publication US10494402B2, “Peptides that stimulate subcutaneous adipogenesis” (The Regents of the University of California, priority 2012, dated 2019)
